Measured values: the supplement of paper PMC10307832

Columns and labels:
Experiment in all cases: relative viability (nuclei count vs DMSO), 5 days (fraction); higher = more cells survive
QS11 = compound: C1CC2=C(C1)C=C(C=C2)OC3=NC(=C4C(=N3)N(C=N4)CC5=CC=C(C=C5)C6=CC=CC=C6)N[C@@H](CC7=CC=CC=C7)CO [QS11]
In short: (§1)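 Acceptance criteria were a control CV below 25% and at least one doubling per plate. Lung cancer cell lines in 1536-well plates got five library-drug doses (not always all listed) √10 apart by pinning and were left 5 days with no medium change. Viability divides treated-well nuclei by vehicle-well nuclei and is the median across plates. Nuclei were counted by MetaXpress from 4× Hoechst images.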

AZ628 = compound: CC1=C(C=C(C=C1)NC(=O)C2=CC(=CC=C2)C(C)(C)C#N)NC3=CC4=C(C=C3)N=CN(C4=O)C [AZ628]
In short: as §1

Darinaparsin = compound: C[As](C)SC[C@H](NC(=O)CC[C@H](N)C(=O)O)C(=O)NCC(=O)O [Darinaparsin]
In short: as §1

AZ628 + Crizotinib = compound: CC1=C(C=C(C=C1)NC(=O)C2=CC(=CC=C2)C(C)(C)C#N)NC3=CC4=C(C=C3)N=CN(C4=O)C [AZ628] + C[C@@H](Oc1cc(-c2cnn(C3CCNCC3)c2)cnc1N)c1c(Cl)ccc(F)c1Cl [Crizotinib] (partner 1 µM)
In short: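 The day after seeding in 1536-well plates, lung cancer cell lines were treated by pin tool with a single drug, or with a fixed anchor-drug dose together with five library-drug doses (not always all listed) in √10 steps. After 5 days, a combined fix-and-stain solution (final 0.05% Triton X-100, 1% formaldehyde, 1 ug/ml Hoechst) was added. Nuclei counted on 4× images gave relative viability as treated counts over vehicle counts, reported as the median of duplicate plates.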

Row | Cell Line | relative viability (QS11; 0.08 µM) | relative viability (QS11; 0.253 µM) | relative viability (QS11; 0.8 µM) | relative viability (QS11; 2.53 µM) | relative viability (QS11; 8 µM) | relative viability (AZ628; 0.08 µM) | relative viability (AZ628; 0.253 µM) | relative viability (AZ628; 0.8 µM) | relative viability (AZ628; 2.53 µM) | relative viability (AZ628; 8 µM) | relative viability (Darinaparsin; 0.08 µM) | relative viability (Darinaparsin; 0.8 µM) | relative viability (Darinaparsin; 2.53 µM) | relative viability (Darinaparsin; 8 µM) | relative viability (AZ628 + Crizotinib; first compound 0.08 µM) | relative viability (AZ628 + Crizotinib; first compound 0.253 µM) | relative viability (AZ628 + Crizotinib; first compound 0.8 µM) | relative viability (AZ628 + Crizotinib; first compound 2.53 µM) | relative viability (AZ628 + Crizotinib; first compound 8 µM)
1 | Calu-6 | 1.11 | 1.06 | 0.941 | 1.1 | 1.07 | 1.02 | 0.899 | 0.754 | 0.784 | 0.207 | 1.2 | 0.99 | 1.01 | 1.14 | 0.753 | 0.678 | 0.605 | 0.577 | 0.153
2 | NCI-H1650 | 0.941 | 0.786 | 0.72 | 0.962 | 0.867 | 1.13 | 1.1 | 1.09 | 0.904 | 0.888 | 0.971 | 0.951 | 0.833 | 1.03 | 1.13 | 0.965 | 0.998 | 0.984 | 0.841
3 | NCI-H647 | 0.979 | 0.856 | 0.917 | 0.956 | 0.769 | 1.01 | 0.962 | 0.798 | 0.936 | 0.732 | 1.08 | 0.962 | 0.896 | 1.26 | 1.24 | 1.03 | 1.04 | 0.984 | 0.793
4 | NCI-H1703 | 0.94 | 0.908 | 0.901 | 1.04 | 0.923 | 0.597 | 0.395 | 0.32 | 0.303 | 0.245 | 1.43 | 1.09 | 0.889 | 1.07 | 0.538 | 0.672 | 0.405 | 0.204 | 0.192
5 | A-427 | 0.862 | 1.05 |  | 1.05 | 1.04 | 0.999 | 0.891 | 0.884 | 0.919 | 0.436 | 1.1 | 0.96 | 1.03 | 1.13 | 0.641 | 0.74 | 0.69 | 0.665 | 0.251
6 | NCI-H1915 | 0.993 | 1.04 |  | 0.872 | 0.871 | 0.994 | 0.939 | 0.796 | 0.731 | 0.464 | 1.04 | 0.964 | 0.965 | 1.1 | 0.976 | 0.919 | 0.869 | 0.727 | 0.495
7 | NCI-H1355 | 0.933 | 0.918 | 0.769 | 0.981 | 0.986 | 1.02 | 0.975 | 0.956 | 0.938 | 0.781 | 1.06 | 0.939 | 0.865 | 1.1 | 1.04 | 1.05 | 0.971 | 0.89 | 0.768
8 | HCC-15 | 1.02 | 1.06 | 0.693 | 0.971 | 0.915 | 1.02 | 0.924 | 0.858 | 0.86 | 0.56 | 1.18 | 1 | 0.992 | 1.14 | 0.81 | 0.793 | 0.767 | 0.77 | 0.446
